Where two headings read alike, the source gives them in different places.
Columns and labels:
[1] = system: IL-6 and TNF-α; test: Cytokine assay (ELISA) in LPS-induced neuroinflammation in mice; format: in vivo, C57BL/6 mice; details: 10 mg/kg for 3 days, 72 h after LPS
[2] = system: lipid peroxidation products (TBARS); test: TBARS assay in brain of LPS-injected mice; format: in vivo, C57BL/6 mice; details: 10 mg/kg for 3 days, 72 h after LPS
Excerpt: All experiments adhered to regulations of DIRECTIVE 2010/63/EU on the protection of laboratory animals. The procedures with animals were reviewed and approved by the Ethics Committee of Smorodintsev Research Institute of Influenza. […]. The animals were housed in a climate-controlled room with a 12/12-h light cycle. The subjects had ad libitum access to food and water during housing. Neuroinflammation was modeled in animals by intraperitoneal (i.p.) single injection of LPS from Escherichia coli saline O111:B4 (Sigma-Aldrich) at a dose of 2 mg/kg.
In total, 7 groups of 5 individuals in each were studied, including a group of intact animals. […]. The blood collected after decapitation was left in tubes with a serum separator for 30 min, then centrifuged at 611 g (3000 rpm) and 4 °C for 10 min. Blood and brain samples were frozen and stored at −20 °C.
The brain was weighed and 2 mL of ice-cold endotoxin-free PBS containing 0.1% non-ionic detergent Triton X-100 was added to the tissue samples left under ice for 10 min until homogenized with a tissue disruptor. […]
The supernatant diluted with buffer 1:10 was used for analysis. […] Each sample (150 μL) was loaded in duplicate into a 96-well plate, and the absorbance was measured at 535 nm on an EPOCH2TC.

[3] = target: T1, human recombinant COX-1 (Homo sapiens, UniProt P23219); test: COX (human) Inhibitor Screening Assay kit (EIA), COX-1
T1 sequence (P23219 24-599): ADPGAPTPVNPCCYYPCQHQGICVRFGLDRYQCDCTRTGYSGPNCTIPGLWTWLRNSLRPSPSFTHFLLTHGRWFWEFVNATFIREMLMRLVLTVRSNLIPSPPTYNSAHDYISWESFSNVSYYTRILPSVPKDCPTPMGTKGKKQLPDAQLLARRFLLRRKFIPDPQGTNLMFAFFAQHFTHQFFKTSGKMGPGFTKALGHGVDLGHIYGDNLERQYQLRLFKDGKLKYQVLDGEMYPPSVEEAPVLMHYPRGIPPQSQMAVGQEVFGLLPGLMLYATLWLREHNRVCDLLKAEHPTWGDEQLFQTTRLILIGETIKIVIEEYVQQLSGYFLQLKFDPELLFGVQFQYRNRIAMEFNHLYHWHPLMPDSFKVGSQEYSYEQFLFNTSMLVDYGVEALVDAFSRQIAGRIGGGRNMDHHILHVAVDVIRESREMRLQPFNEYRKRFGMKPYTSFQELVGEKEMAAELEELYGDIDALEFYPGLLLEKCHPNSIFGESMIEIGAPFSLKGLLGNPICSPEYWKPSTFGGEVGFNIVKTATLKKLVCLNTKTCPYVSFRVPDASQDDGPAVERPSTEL

[4] = target: T2, human recombinant COX-2 (Homo sapiens, UniProt P35354); test: COX (human) Inhibitor Screening Assay kit (EIA), COX-2
T2 sequence (P35354 18-604): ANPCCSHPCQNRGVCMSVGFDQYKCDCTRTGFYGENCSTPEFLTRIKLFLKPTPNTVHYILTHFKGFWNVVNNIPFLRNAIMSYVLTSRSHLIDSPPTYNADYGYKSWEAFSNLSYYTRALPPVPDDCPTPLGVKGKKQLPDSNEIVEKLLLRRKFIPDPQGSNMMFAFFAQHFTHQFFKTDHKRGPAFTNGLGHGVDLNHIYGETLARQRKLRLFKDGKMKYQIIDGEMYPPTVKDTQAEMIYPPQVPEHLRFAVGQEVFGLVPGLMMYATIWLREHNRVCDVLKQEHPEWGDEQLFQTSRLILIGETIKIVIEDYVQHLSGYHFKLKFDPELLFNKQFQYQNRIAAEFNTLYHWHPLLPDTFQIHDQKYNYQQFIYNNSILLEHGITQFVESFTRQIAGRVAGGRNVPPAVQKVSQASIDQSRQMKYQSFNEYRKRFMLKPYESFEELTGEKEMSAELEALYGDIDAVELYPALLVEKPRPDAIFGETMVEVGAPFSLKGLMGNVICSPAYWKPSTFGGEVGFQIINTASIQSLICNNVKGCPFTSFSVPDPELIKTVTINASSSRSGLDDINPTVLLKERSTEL

[5] = system: ovine COX-1; parameters: method as in PMID 25074039; details: ovine COX-1/COX-2 assay kit; cited from earlier work
[6] = system: ovine COX-2; parameters: method as in PMID 25074039; details: ovine COX-1/COX-2 assay kit; cited from earlier work
[7] = target: T1, human recombinant COX-1; parameters: purchased Cayman Chemical Company 701230; details: human COX-1/COX-2 assay kit; cited from earlier work
[8] = target: T2, human recombinant COX-2; parameters: purchased Cayman Chemical Company 701230; details: cited from earlier work
[9] = Plasma protein binding by ultrafiltration, rat plasma; format: in vitro ADME
Method: (§1) The ultrafiltration method was used to estimate the protein-free fraction of [^18F]F-IV and [^11C]MPbP in human and rat plasma. Equal volumes (500 μL) of plasma or PBS (control) were mixed with the formulated solution of radioligand (5 MBq,50μL) and incubated at 37 °C for 15 min. After incubation, aliquots of mixture (200 µL) were transferred to the tubes for ultrafiltration (Amicon 3K; Merck) and centrifuged at 7000 g for 15 min. Equal aliquots (20 μL) of ultrafiltrate (Cfree) and plasma (Ctotal) were measured with γ-counter. The obtained data were corrected for the radioligand binding to the filter membrane. Filtrations were performed in duplicate. The unbound (free) fraction of the radioligand was calculated as fu(%) = Cfree/Ctotal × 100%.

[10] = Plasma protein binding by ultrafiltration, human plasma; format: in vitro ADME
Method: as §1

[11] = parameters: method as in doi:10.1002/slct.201904788; details: all examined organs and brain regions; cited from earlier work
[12] = Plasma-stability study (radio-HPLC); format: in vitro ADME; details: 37 °C, up to 60 min
Method: The stability of [^18F]F-IV was investigated in human plasma at 37 °C in the range from 0 to 60 min according to a modified protocol. Phosphate-buffered saline (PBS, 0.15 M, pH 7.4) was used as a control. [^18F]F-IV formulated solution (10 µL, ~1 MBq) was added to tubes with PBS (300 µL) and human plasma (300 µL). The mixture was vortexed and incubated at 37 °C. An aliquot of 100 µL from the sample was taken at different time points (0, 10, 20, 40, and 60 min) and mixed with 100 µL ice-cooled acetonitrile and centrifuged (3 min, 4500× g). The supernatants were analyzed by radio-HPLC using XBridge C18 analytical column.

[13] = logD7.4 determination, shake-flask method; format: physicochemical; details: 1-octanol/phosphate buffer pH 7.4, n = 6; read-out: lipophilicity (logD7.4)
Method: The partition coefficient of [^18F]F-IV (log D7.4) was determined by the shake-flask method for measuring the distribution of radioactivity between 1-octanol and phosphate buffer pH 7.4. Into a tube containing 10 µL of [^18F]F-IV (~1 MBq), 1.5 mL of pre-saturated 1-octanol and 1.5 mL of phosphate buffer were added and vortexed for 15 min. Then, the tube was centrifuged at 3000 g for 5 min to ensure complete separation of the phases. Then, aliquots of 500 μL were taken from each phase into separate tubes and the radioactivity was measured in a γ-counter. The measurements were performed in triplicate. The log D7.4 value was calculated as follows: log (counts per min in 1-octanol/ counts per min in PBS) for five independent experiments.

[14] = Ex vivo biodistribution in intact, LPS-treated and celecoxib-blocked rats; parameters: species or system Wistar rats
Method: Ex vivo biodistribution was intended as a preliminary assessment of the BBB permeability and overall distribution of [^18F]F-IV in LPS-treated and intact Wistar rats. [^18F]F-IV uptake by tissue was expressed as %ID/g (dose administered per gram of tissue). […] The radioligand seems to readily penetrate the BBB, as evidenced by the high initial rate of brain uptake with a peak value of 2.21 ± 0.64 and 2.09 ± 0.65 (%ID/g) in the pons and medulla, respectively, at 10 min post-injection, (Figure 6A). […] The excretion pathway was through the kidneys, and 60 min after injection there was no obvious difference in [^18F]F-IV uptake values between tissues. The lack of significant specific accumulation of radioactivity in the brain, heart, lungs, and kidneys most likely reflects the low baseline level of COX-2 expression in these organs in healthy animals. It should be noted that relatively high initial levels of radioactivity in the blood pool persisted even 120 min after injection of [^18F]F-IV (0.99 ± 0.17 vs. 1.35 ± 0.06%ID/g). This was the main difference in the distribution of [^18F]F-IV and the previously reported [^11C]MPbP in organs and tissues of intact rats.
Ex vivo radioligand biodistribution was performed by direct radiometry of organs and tissue samples of Wistar rats. Each rat was injected with (12 ± 3) MBq (volume ≤ 0.2 mL) of [^18F]F-IV through the tail vein under anesthetic conditions. Control rats were sacrificed at 10 (n = 3), 30 (n = 3), 60 (n = 3), and 120 (n = 3) min after injection. Twenty-four hours prior to ex vivo biodistribution studies, 6 rats received an intraperitoneal (i.p.) injection of LPS (2 mg/kg) from Escherichia coli (O111: B4) or saline (1 mL/kg).
Blood samples and organs of interest, namely, the brain (cerebral cortex, cerebellum, medulla, and pons), thymus, heart, lung, spleen, kidney, liver, bladder, and muscle, were removed and weighed. The radioactivity in each tissue sample was measured by a γ-counter to calculate the percentage of injected dose per gram of tissue (%ID/g). Data were provided as mean ± SEM values.

[15] = rat plasma, read-out: PPB level, rats (converted)
[16] = unbound (free) fraction, 37 °C, n = 3, read-out: fu in Rat Plasma
[17] = human plasma, read-out: PPB level, humans (converted)
[18] = unbound (free) fraction, 37 °C, n = 6, read-out: fu in Human Plasma
[19] = %ID organ/%ID blood, 60 min post-injection
[20] = healthy (intact) rats, 10 min post-injection

For `Cc1ccc(-c2cc(C(F)(F)F)nn2-c2ccc(S(N)(=O)=O)cc2)cc1` [Celecoxib, celecoxib, reference compound], the “serum levels of IL-6 and TNF-α” value [1] was “reduced them to levels seen in intact animals” and the “reduction of TBARS levels in brain” value [2] was “little or no effect”.

With `CCCc1ccc(O)c(-c2ccc(OCCF)c(OC)c2)c1` [F-III, 4′-(2-fluoroethoxy)-3′-methoxy-5-propyl-2-hydroxy-1,1′-biphenyl] the “reduction of TBARS levels in brain” value [2] was 116%.

For `CCCc1ccc(O)c(-c2ccc(OCCF)cc2)c1` [F-IV, 4′-(2-fluoroethoxy)-2-hydroxy-5-propyl-1,1′-biphenyl], the “serum levels of IL-6 and TNF-α” value [1] was “comparable or even superior to that of celecoxib”, the IC50 [3] was 4610 nM and the IC50 [4] was 90 nM. For the same compound, the “SI (Selectivity Index)” value ([4]; SI = COX-1 IC50/COX-2 IC50, human assay kit, this study) was 48.

For `C=CCc1ccc(O)c(-c2ccc(OC)c(CC=C)c2)c1` [MH, 4′-O-methylhonokiol], the IC50 [5] is listed as 2400 nM and the IC50 [6] is listed as 60 nM.

In the case of `CCCc1ccc(O)c(-c2ccc(OC)cc2)c1` [MPbP], the IC50 [7] is listed as 2530 nM, the “SI (Selectivity Index)” value ([8]; SI = COX-1 IC50/COX-2 IC50, human assay kit) is listed as 18 and the IC50 ([8]; human COX-1/COX-2 assay kit) is listed as 140 nM. The “experimental ddG between MPbP and F-IV for COX-2” value ([4]; from experimental IC50 values) was 0.22 kcal/mol.

Work on `CCCc1ccc(O)c(-c2ccc(O[11CH3])cc2)c1` [[^11C]MPbP, 4′-[^11C]methoxy-5-propyl-1,1′-biphenyl-2-ol, reference compound] yielded a fraction unbound at 15 min, 9.1 MBq/mL [9, 15] of 0.08, a fraction unbound at 15 min, 9.1 MBq/mL [9, 16] of 0.0802 ± 0.0037 and a fraction unbound at 15 min, 9.1 MBq/mL [10, 17] of 0.02. For the same compound, the fraction unbound at 15 min, 9.1 MBq/mL [10, 18] was 0.0188 ± 0.0013 and the “uptake in LPS rats vs healthy rats” value [11] was “up to 400%”.

With `CCCc1ccc(O)c(-c2ccc(OCC[18F])cc2)c1` [[^18F]F-IV, 4′-(2-[^18F]fluoroethoxy)-2-hydroxy-5-propyl-1,1′-biphenyl] the “radiochemical stability in human plasma” value [12] was 92%, the logD [13] was 3.3 ± 0.1 and the “increase in radioactivity in LPS animals vs controls, kidney” value [14, 19] was 16%. The “increase in radioactivity in LPS animals vs controls, liver” value [14, 19] was 23%, the “increase in radioactivity in LPS animals vs controls, lung” value [14, 19] was 12% and the “increase in radioactivity in LPS animals vs controls, spleen” value [14, 19] was 20%. The “increase in radioactivity in LPS animals vs controls, thymus” value [14, 19] was 20%, the “increase in uptake in LPS-treated vs saline-injected rats, medulla” value [14, 19] was 16% and the “increase in uptake in LPS-treated vs saline-injected rats, pons” value [14, 19] was 5%. The “reduction in radioactivity by celecoxib blocking” value ([14]; LPS rats, celecoxib 10 mg/kg i.v. 30 min before radioligand, brain (pons and medulla), heart, lung, kidney) was 20–32%, the “brain uptake peak value, medulla” value [14, 20] was 2.09 ± 0.65 %ID/g and the “brain uptake peak value, pons” value [14, 20] was 2.21 ± 0.64 %ID/g. For the same compound, the “radioactivity in the blood pool” value ([14]; intact rats, 120 min after injection) was 0.99 ± 0.17 %ID/g, the “radioactivity in the blood pool, initial level” value ([14]; intact rats, initial (10 min) level) was 1.35 ± 0.06 %ID/g and the fraction unbound at 15 min, 9.1 MBq/mL [9, 15] was under 0.02. For the same compound, the fraction unbound at 15 min, 9.1 MBq/mL [9, 16] was 0.0201 ± 0.0026, the fraction unbound at 15 min, 9.1 MBq/mL [10, 17] was under 0.01 and the fraction unbound at 15 min, 9.1 MBq/mL [10, 18] was 0.0019 ± 0.0005.
